What all share (assay): NCI-60 cell line screen, 48 h
Assay [1] has as its system A498 renal.
Assay [2] relates to K-562 leukemia.
Assay [3] has as its system LXFL 529 NSCLC.
For assay [4], the system named is SW-620 colon.
The subject of assay [5] is U251 CNS.
In assay [6] the test system is UACC-62 melanoma.
In assay [7] the test system is HOP-18 NSCLC.
Assay [8] relates to SF-539 CNS.
Assay [9] concerns MDA-MB-231 breast.
The test system of assay [10] is NCI/ADR-RES ovarian.

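A five-concentration, 48-hour dose response in 96-well plates underlies each endpoint, interpolated linearly between surrounding concentrations. GI50 = concentration required for 50% inhibition of growth. TGI denotes the concentration required for complete inhibition of growth.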

Turning to `CC(=O)N(CCN1C(=O)c2ccccc2C1=O)CCN1C(=O)c2ccccc2C1=O`, the TGI in [1], in assay [2], in assay [3], in assay [4], in assay [5] and in assay [6] was above 100 µM throughout.

In the case of `CC(=O)OCC1OC([Se-])C(OC(C)=O)C(OC(C)=O)C1OC(C)=O.N#CCC[PH+](CCC#N)CCC#N.[Au+]` (centres undefined), the GI50 in assay [7] is 12.6 µM; in assay [2] it was 3.55 µM; in assay [3] it was 3.5 µM; in [8], 15.3 µM; in assay [4], 4.75 µM; in [5], 10.9 µM. Besides, the GI50 in assay [6] was 5.12 µM. Moreover, the TGI in assay [7] is 46.9 µM; in [2], 28.3 µM; in assay [3], 37.3 µM; in assay [8], 41.2 µM; in assay [4], above 89 µM; in [5], above 48.8 µM. Also, in assay [6], the TGI stood at 30.6 µM.

On to `COc1cc(C2C(C(=O)O)=C(COC(C)=O)Oc3cc4c(cc32)OCO4)cc(OC)c1OC(C)=O` (centres undefined), for which the TGI in assay [7], in assay [2], in assay [4], in assay [5] and in assay [6] was above 100 µM in each case.

Consider `O=C(N/C=C/C=C/Sc1ccccc1)OCc1ccccc1`, for which the TGI in assay [7] was 65 µM; in assay [2], above 100 µM; in assay [3], 32.5 µM; in assay [8], 30.4 µM; in assay [4], 32.8 µM; in assay [5] it was 34 µM. The same compound registered a TGI in assay [6] of 29.9 µM.

On to `O=[N+]([O-])c1ccc(/C(Cl)=C/c2ccc(/C=C(\Cl)c3ccc([N+](=O)[O-])cc3[N+](=O)[O-])cc2)c([N+](=O)[O-])c1`, for which the TGI in [1], in assay [3], in assay [8], in assay [4], in assay [5] and in [6] was above 100 µM each time.

Turning to `COC1=CC(=O)OC(/C=C(C)/C=C/C2=C(C)CCCC2(C)C)C1` (centres undefined), the TGI in [1], in assay [2], in assay [3], in [8], in assay [4] and in [5] was above 100 µM throughout. This compound displayed a TGI in [6] above 100 µM.

For `CCc1nc2ccccc2c(=O)n1/N=C(\N=Nc1ccc(Cl)cc1)c1ccccc1`, the TGI is above 100 µM in assay [1]; 71 µM in assay [7]; 50.8 µM in [3]; 51.8 µM in assay [8]; above 100 µM in assay [4]; above 87.8 µM in assay [5]. The TGI in [6] is above 100 µM.

As to `CCCCN(CCCC)CC(C(=O)Nc1ccc([N+](=O)[O-])cc1[N+](=O)[O-])/C(C)=N\NC(=O)C[N+](C)(C)C` (centres undefined), the TGI in [1], in assay [7], in assay [2], in assay [3], in [8] and in assay [5] was above 100 µM each time. In assay [6], this compound yielded a TGI above 100 µM.

`O=C1NC(=O)C2C1C1C=C3c4ccccc4N(c4ccccc4)C32[C@H]2C(=O)NC(=O)[C@@H]12` (some centres undefined): the TGI in [1], in [7], in [2], in assay [3], in assay [8] and in [4] was above 100 µM throughout. Besides, the TGI in [6] is above 100 µM.

Consider `C#CCn1c(=O)c2cccnc2n(CC#C)c1=O`, for which the TGI in assay [7], in assay [3], in assay [4] and in assay [5] was above 100 µM in each case.

Regarding `Cn1c2cc([N+](=O)[O-])ccc2c(=O)c2c(O)cc3c(c21)C=CC(C)(C)O3`, the TGI in [1] was above 100 µM; in assay [2], above 100 µM; in assay [3] it was above 100 µM; in [8], 32.4 µM; in [4] it was above 100 µM; in [5] it was above 100 µM. In [6], this compound had a TGI above 100 µM.

As to `C=C1c2[nH]c3ccccc3c2CC(C(=O)O)N1C(O)c1ccc(S(=O)(=O)O)cc1` (centres undefined), the TGI in [1], in [2], in [3], in assay [8], in [4] and in [5] was above 100 µM in each case. Besides, in [6], the TGI was above 100 µM.

`C=CCC12CCC(=O)[C@@]1(C)CC=C(O)C2=O` (some centres undefined): the TGI in [1], in [7], in assay [3], in assay [8], in assay [4] and in assay [5] was above 100 µM each time. Besides, the TGI in [6] was above 100 µM.

`O=C([O-])CCc1ccccc1.O=C([O-])CCc1ccccc1.O=C([O-])CCc1ccccc1.O=C([O-])CCc1ccccc1.[Mo+2].[Mo+2]`: the GI50 in [7], in [2], in [3], in assay [8], in [4] and in [5] was above 100 µM in each case. Further, the GI50 in assay [6] was above 100 µM. Moreover, the TGI in [7], in assay [2], in assay [3], in assay [8], in [4] and in assay [5] was above 100 µM throughout. This compound had a TGI in assay [6] above 100 µM.

Consider `COc1cc2c(cc1OCCCCn1c(-c3cccs3)nc3ccccc31)N=C[C@@H]1CCCN1C2=O`, for which the GI50 was 1.68 µM in assay [1]; 15.5 µM in [2]; 1.39 µM in assay [9]; 3.24 µM in assay [10]; 1.72 µM in [8]; 1.84 µM in assay [4]. In addition, the GI50 is 1.77 µM in assay [5] and 1.57 µM in [6]. Moreover, the TGI in assay [1] was 4.76 µM; in [2], above 100 µM; in assay [9], 5.22 µM; in [10] it was 13.9 µM; in assay [8], 3.66 µM; in assay [4] it was 10.3 µM. Besides, the TGI in [5] amounted to 10.1 µM; in assay [6], 3.08 µM.

For `CS(=N)(=O)CCC(N)P(=O)(O)O` (centres undefined), the TGI in assay [1], in assay [2], in assay [9], in [10], in [8] and in assay [4] was above 100 µM throughout. Besides, the TGI in [5] and in assay [6] was above 100 µM each time.

The record behind these values is PubChem BioAssay (NCI).
